These results are taken from patent US20150136233A1, “ORGANIC PHOTOVOLTAIC DEVICES COMPRISING FULLERENES AND DERIVATIVES” (The Regents of the University of California, priority 2013, published 2015).

Data set [1] in a line: LUMO energy level by cyclic voltammetry. Type of data set: physicochemical. The note with it: for LUMO Energy Level: cyclic voltammetry, onset of first reduction, ferrocene internal reference, o-dichlorobenzene/acetonitrile 4:1. The procedure: The electronic property of the synthesized fullerenes are characterized by cyclic voltammetry (CV) using a Bio-Logic Multi-channel Potentiostat with Pt as a counter electrode, Ag/Ag+ as a reference electrode and ferrocene as an internal reference, with 4:1 v/v ratio of o-dichlorobenzene and acetonitrile as solvent and 0.1 M tetrabutylammonium hexafluorophosphate as electrolyte at a scan rate of 100 mV/s. […] The LUMO levels are calculated according to the following equation 2 using the onset of the first reduction. The data are listed in Table 2, LUMOs of C60, C70, PCBM, Bis-PCBM, ICMA and ICBA were measured under the same condition and listed too as reference.
ELUMO=[(EFLN(Vs Ag/Ag+)(E^1/2Ferrocene(Vs Ag/Ag+)]−4.8 eV (equation 2)

The conditions of data set [2]: references [15, 18]; cited from earlier work.

On to “bis(1-[3-(methoxycarbonyl)propyl]-1-phenyl)[6.6]C62 [Bis-PC61BM]”, for which, in data set [1], the “LUMO higher than that of PCBM” value worked out at 0.1 eV and the “LUMO Energy Level” value was −3.72 eV. Also, the “LUMO of bis-addition fullerene higher than LUMO of the mono-addition fullerene (PCBM, ICMA respectively)” value in data set [2] is listed as “about 0.1 eV”.
As for “1′,4′-dihydro-naphtho[2′,3′:1,2][5,6]fullerene-C60 [IC60MA]”, in data set [1], the “LUMO increase compared to pristine C60” value is “about 0.1 eV” and the “LUMO Energy Level” value is −3.76 eV.
For the molecule `COC(=O)CCCC1(c2ccccc2)C23c4c5c6c7c8c9c(c%10c%11c2c2c%12c4c4c%13c5c5c7c7c8c8c%14c9c%10c9c%10c%11c2c2c%11c%12c4c4c%12c%13c5c5c7c7c8c8c%14c9c9c%10c2c2c%11c4c4c%12c5c7c5c8c9c2c45)C613` (stereo not shown) [PC61BM, [6,6]-phenyl C61-butyric acid methyl ester], in data set [1], the “LUMO increase compared to pristine C60” value is recorded as “about 0.1 eV” and the “LUMO Energy Level” value is listed as −3.80 eV.
